Consider 21 compounds from ChEMBL document CHEMBL1201862, “PubChem BioAssay data set” (2004).

Calls of active or inactive are those of the source.

Assay [1] has as its target Peroxisome proliferator-activated receptor gamma/Nuclear receptor coactivator 1 (Homo sapiens, UniProt P37231). Nature of the assay: TR-FRET dose response biochemical High Throughput Screening assay for agonists of the steroid receptor coactivator 1 (SRC-1) recruitment by the peroxisome proliferator-activated receptor gamma (PPAR gamma): non-selective agonists. [Related pubchem assays (depositor defined):AID1300, AID1808, AID504735, AID631]. The class given is protein assay.

Assay [2] addresses Peroxisome proliferator-activated receptor gamma/Nuclear receptor coactivator 3 (Homo sapiens, UniProt P37231). Briefly: TR-FRET dose response biochemical High Throughput Screening assay for agonists of the steroid receptor coactivator 3 (SRC-3) recruitment by the peroxisome proliferator-activated receptor gamma (PPAR gamma): non-selective agonists. [Related pubchem assays: 1301 (Confirmation screen.), 1048 (Primary screen.)]. The class given is functional.

Assay [3] addresses Peroxisome proliferator-activated receptor gamma/Nuclear receptor coactivator 2 (Homo sapiens, UniProt P37231). Briefly: TR-FRET dose response biochemical High Throughput Screening assay for agonists of the steroid receptor coactivator 2 (SRC-2) recruitment by the peroxisome proliferator-activated receptor gamma (PPAR gamma): non-selective agonists. [Related pubchem assays: 1297, 1032 ]. It counts as functional.

Assay [4] concerns the target T1, Epstein-Barr nuclear antigen 1 (Epstein-Barr virus (strain B95-8) (HHV-4) (Human herpesvirus 4), UniProt P03211).
T1 sequence (P03211 whole entry): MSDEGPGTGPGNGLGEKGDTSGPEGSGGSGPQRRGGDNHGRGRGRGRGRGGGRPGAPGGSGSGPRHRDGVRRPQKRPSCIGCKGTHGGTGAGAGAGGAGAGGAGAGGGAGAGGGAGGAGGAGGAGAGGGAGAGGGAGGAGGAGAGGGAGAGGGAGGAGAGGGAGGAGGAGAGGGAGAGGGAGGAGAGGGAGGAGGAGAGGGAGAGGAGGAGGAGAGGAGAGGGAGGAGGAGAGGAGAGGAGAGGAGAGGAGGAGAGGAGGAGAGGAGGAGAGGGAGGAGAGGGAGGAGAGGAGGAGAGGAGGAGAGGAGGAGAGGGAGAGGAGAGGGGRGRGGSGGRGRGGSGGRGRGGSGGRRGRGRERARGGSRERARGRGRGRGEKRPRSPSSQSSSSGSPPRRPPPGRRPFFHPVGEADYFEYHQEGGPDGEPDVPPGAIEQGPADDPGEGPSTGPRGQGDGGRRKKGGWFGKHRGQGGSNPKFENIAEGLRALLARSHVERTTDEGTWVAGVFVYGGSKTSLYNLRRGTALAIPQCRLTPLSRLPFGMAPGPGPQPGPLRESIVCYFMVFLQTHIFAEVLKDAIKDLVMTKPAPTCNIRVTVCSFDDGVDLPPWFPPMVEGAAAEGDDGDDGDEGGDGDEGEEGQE
Nature of the assay: EBNA-1 inhibitors, dose response, biochemical, fluorescence polarization, 1536-well (AID 2381).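 Note: fluorescence polarization of a Cy5 DNA probe bound by EBNA-1 protein.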 Also on record: species or system human gammaherpesvirus 4.

The target in assay [5] is T2, Lytic switch protein BZLF1 (Epstein-Barr virus (strain B95-8) (HHV-4) (Human herpesvirus 4), UniProt P03206).
T2 sequence (P03206 whole entry): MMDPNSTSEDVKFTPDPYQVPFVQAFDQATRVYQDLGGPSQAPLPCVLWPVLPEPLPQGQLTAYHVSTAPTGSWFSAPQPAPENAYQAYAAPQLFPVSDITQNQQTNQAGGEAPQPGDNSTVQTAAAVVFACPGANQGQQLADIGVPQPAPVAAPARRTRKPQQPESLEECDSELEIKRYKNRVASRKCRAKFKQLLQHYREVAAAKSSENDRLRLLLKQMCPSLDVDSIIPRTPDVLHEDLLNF
Briefly: EBV ZTA inhibitors, dose response, counter-screen for EBNA-1 inhibitor project, biochemical, fluorescence polarization, Epstein-Barr virus, 1536-well (AID 2377).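 Note: fluorescence polarization of Cy5-labelled ZRE DNA probe bound by purified Zta.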 Also on record: species or system human gammaherpesvirus 4.

Assay [6] has as its target DNA dC->dU-editing enzyme APOBEC-3A (Homo sapiens, UniProt P31941). Nature of the assay: Dose Response confirmation of small molecule APOBEC3A DNA Deaminase Inhibitors via a fluorescence-based single-stranded DNA deaminase assay. [Related pubchem assays (depositor defined):AID493011, AID493024]. The class given is functional.
The target of assay [7] is DNA dC->dU-editing enzyme APOBEC-3G (Homo sapiens, UniProt Q9HC16). The class given is functional.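 Note: Dose-response counterscreen measuring inhibition of APOBEC3G DNA deaminase activity, run while confirming APOBEC3A inhibitors.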
A further assay concerns the target Cytochrome P450 2D6 (Homo sapiens, UniProt P10635).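 Note: CYP2D6 member of a cytochrome P450 panel assay.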
The target of assay [8] is T3, Mannose-6-phosphate isomerase (Homo sapiens, UniProt P34949).
T3 sequence (P34949 whole entry): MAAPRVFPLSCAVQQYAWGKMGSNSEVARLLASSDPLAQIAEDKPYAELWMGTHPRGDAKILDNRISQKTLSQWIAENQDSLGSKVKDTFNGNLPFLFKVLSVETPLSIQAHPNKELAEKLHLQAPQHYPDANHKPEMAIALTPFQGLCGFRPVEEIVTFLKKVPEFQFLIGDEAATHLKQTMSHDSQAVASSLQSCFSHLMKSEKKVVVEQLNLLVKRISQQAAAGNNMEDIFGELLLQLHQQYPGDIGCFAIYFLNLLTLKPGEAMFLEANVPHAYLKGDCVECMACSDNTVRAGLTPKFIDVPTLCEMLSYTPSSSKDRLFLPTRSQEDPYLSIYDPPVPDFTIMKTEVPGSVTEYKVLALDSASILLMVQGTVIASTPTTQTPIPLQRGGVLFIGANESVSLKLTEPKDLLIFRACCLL
Briefly: human PMI inhibitors, high substrate, primary screen, biochemical, fluorescence intensity, high mannose 6-phosphate (AID 1220).

Assay [9] is described as follows: cytotoxicity in HEK-293T cells, dose response, cytotoxicity control for TCR NF-kB inhibitor project, luminescence, T-cell screen hits (AID 489026).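 Note: cells exposed to compound about 14 hours before the viability readout.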 It counts as functional, cell-based.
The test system of assay [10] is Vero. Briefly: cells. The class given is functional, cell-based. The conditions noted are these: Chlorocebus sabaeus.
For assay [11], the system named is Vero. Nature of the assay: cells. The class given is functional. The conditions noted are these: Chlorocebus sabaeus.
A further assay deals with Paired box protein Pax-8 (Homo sapiens, UniProt Q06710). Nature of the assay: inhibitors of PAX8-driven TPO luciferase reporter, dose response, RMG-I cells, cherry-pick (AID 687027).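 Note: luciferase reporter driven by Pax8 target thyroperoxidase promoter measured by SteadyGlo luminescence.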 The class given is functional, cell-based.
Assay [12] can be described thus: microbe, parasite or virus in culture. It counts as functional. To be noted: Mycobacterium tuberculosis.
In the next assay the target is T4, CAAX prenyl protease 2 (Saccharomyces cerevisiae S288c, UniProt Q03530).
T4 sequence (Q03530 whole entry): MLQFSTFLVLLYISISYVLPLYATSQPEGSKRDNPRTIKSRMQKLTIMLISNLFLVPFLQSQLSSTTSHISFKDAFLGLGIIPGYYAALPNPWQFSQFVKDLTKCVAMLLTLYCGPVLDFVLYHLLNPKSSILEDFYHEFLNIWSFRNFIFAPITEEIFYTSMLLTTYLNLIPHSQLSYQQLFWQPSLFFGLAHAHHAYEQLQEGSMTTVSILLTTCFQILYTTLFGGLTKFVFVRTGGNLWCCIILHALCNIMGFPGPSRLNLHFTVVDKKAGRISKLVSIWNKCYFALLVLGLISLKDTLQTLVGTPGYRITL
It counts as biochemical.

A short description of assay [13]: inhibitors of intracellular T. cruzi replication, confirmation, NIH3T3 host cells, beta-gal luminescence (AID 2044).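 Note: intracellular parasites grown in NIH/3T3 mouse fibroblasts as host cells; luminescent beta-galactosidase reporter signal from transgenic T. cruzi replicating inside host cells; inhibitors lower the luminescence signal.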 The class given is functional, cell-based.
Assay [14] can be described thus: cytotoxicity toward NIH3T3 fibroblasts, dose response, counter-screen, cell-based, ATP luminescence, mouse fibroblasts (AID 2010).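 Note: cells exposed to compound for about 90 hours before reading.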 It counts as functional.
Assay [15] deals with T5, Heat shock factor protein 1 (Mus musculus, UniProt P38532).
T5 sequence (P38532 whole entry): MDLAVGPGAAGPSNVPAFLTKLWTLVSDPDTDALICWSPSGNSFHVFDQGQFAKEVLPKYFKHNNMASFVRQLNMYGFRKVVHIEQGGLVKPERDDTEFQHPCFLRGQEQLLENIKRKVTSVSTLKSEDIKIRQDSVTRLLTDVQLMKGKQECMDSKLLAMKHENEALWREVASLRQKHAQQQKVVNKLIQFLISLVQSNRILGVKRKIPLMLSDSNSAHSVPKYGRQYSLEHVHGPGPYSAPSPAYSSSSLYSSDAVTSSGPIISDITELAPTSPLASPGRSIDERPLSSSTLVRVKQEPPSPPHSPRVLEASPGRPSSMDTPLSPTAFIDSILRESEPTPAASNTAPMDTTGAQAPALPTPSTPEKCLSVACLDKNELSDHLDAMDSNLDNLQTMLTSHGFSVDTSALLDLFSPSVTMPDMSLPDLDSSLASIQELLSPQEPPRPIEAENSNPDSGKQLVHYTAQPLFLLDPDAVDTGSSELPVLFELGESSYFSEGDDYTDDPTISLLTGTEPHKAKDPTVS
Nature of the assay: HSF1 potentiators in luciferase reporter cells, confirmation, cell-based, NIH3T3, luminescence, dose retest (AID 435004).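 Note: stress induced by proteasome inhibitor MG132 added 30 min after compound; luciferase reporter driven by HSF1 response element in NIH3T3 cells; actives raise luminescence as potentiators of the MG132 stress response.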 The class given is functional.

The next assay has as its target Prothrombin (Homo sapiens, UniProt P00734). Nature of the assay: Thrombin 1536 HTS Dose Response Confirmation. [Related pubchem assays: 1046 (Thrombin 1536 HTS; hits were confirmed in this assay)]. The class given is functional.

Sequence of Peroxisome proliferator-activated receptor gamma/Nuclear receptor coactivator 3 (P37231 whole entry): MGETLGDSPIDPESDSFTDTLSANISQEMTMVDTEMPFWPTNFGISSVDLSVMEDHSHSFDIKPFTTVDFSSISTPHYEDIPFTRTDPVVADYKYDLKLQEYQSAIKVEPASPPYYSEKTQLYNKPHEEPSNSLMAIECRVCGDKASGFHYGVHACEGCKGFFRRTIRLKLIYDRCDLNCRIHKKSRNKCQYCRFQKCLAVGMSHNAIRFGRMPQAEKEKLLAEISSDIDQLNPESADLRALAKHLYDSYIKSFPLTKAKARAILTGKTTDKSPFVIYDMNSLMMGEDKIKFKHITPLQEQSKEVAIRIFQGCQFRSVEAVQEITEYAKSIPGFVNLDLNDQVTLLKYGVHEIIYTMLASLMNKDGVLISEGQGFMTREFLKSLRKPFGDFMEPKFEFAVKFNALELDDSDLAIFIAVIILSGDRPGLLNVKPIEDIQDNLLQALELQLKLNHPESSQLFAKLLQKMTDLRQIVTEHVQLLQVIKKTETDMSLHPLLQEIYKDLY
Sequence of Peroxisome proliferator-activated receptor gamma/Nuclear receptor coactivator 3 (Q9Y6Q9 whole entry, further chain): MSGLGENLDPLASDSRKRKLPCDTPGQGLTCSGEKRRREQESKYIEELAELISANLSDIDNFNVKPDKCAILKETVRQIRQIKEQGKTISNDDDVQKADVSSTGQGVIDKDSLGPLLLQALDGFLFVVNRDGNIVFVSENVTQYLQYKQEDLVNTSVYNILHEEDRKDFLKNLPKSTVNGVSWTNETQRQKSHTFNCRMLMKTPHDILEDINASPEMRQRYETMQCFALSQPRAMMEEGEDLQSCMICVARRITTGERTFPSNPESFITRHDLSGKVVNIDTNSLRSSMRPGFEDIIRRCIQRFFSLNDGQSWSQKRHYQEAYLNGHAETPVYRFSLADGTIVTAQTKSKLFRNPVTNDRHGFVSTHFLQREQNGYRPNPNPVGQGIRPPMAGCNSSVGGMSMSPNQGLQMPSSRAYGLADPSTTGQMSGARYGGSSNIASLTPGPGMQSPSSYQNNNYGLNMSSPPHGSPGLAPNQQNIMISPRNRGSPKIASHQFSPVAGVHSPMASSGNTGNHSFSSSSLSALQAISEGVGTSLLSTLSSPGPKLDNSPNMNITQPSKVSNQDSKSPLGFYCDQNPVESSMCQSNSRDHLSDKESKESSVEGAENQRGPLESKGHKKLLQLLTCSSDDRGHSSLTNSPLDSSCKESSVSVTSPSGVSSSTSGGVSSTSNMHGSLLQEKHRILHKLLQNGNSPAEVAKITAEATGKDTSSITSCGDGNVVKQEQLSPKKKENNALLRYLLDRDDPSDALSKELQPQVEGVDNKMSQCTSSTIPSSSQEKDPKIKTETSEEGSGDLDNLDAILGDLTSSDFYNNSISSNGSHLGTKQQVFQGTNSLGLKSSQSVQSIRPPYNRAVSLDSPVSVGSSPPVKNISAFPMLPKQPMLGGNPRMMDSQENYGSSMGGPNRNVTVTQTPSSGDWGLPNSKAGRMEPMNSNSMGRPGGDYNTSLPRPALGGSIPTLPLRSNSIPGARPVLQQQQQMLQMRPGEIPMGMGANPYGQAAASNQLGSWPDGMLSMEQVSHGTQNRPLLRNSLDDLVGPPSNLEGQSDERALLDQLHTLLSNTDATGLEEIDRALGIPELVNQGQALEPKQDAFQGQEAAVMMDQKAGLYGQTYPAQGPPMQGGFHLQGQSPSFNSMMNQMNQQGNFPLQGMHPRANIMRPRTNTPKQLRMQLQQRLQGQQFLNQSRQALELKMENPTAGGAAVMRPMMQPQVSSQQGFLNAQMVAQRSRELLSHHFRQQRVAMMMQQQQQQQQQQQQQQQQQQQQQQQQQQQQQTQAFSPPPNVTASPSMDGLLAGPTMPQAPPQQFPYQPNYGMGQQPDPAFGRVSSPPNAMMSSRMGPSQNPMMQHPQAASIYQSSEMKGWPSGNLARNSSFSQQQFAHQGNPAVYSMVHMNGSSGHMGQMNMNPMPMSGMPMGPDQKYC
Sequence of Peroxisome proliferator-activated receptor gamma/Nuclear receptor coactivator 1 (P37231 whole entry): as the sequence (P37231 whole entry) above
Sequence of Peroxisome proliferator-activated receptor gamma/Nuclear receptor coactivator 1 (Q15788 whole entry, further chain): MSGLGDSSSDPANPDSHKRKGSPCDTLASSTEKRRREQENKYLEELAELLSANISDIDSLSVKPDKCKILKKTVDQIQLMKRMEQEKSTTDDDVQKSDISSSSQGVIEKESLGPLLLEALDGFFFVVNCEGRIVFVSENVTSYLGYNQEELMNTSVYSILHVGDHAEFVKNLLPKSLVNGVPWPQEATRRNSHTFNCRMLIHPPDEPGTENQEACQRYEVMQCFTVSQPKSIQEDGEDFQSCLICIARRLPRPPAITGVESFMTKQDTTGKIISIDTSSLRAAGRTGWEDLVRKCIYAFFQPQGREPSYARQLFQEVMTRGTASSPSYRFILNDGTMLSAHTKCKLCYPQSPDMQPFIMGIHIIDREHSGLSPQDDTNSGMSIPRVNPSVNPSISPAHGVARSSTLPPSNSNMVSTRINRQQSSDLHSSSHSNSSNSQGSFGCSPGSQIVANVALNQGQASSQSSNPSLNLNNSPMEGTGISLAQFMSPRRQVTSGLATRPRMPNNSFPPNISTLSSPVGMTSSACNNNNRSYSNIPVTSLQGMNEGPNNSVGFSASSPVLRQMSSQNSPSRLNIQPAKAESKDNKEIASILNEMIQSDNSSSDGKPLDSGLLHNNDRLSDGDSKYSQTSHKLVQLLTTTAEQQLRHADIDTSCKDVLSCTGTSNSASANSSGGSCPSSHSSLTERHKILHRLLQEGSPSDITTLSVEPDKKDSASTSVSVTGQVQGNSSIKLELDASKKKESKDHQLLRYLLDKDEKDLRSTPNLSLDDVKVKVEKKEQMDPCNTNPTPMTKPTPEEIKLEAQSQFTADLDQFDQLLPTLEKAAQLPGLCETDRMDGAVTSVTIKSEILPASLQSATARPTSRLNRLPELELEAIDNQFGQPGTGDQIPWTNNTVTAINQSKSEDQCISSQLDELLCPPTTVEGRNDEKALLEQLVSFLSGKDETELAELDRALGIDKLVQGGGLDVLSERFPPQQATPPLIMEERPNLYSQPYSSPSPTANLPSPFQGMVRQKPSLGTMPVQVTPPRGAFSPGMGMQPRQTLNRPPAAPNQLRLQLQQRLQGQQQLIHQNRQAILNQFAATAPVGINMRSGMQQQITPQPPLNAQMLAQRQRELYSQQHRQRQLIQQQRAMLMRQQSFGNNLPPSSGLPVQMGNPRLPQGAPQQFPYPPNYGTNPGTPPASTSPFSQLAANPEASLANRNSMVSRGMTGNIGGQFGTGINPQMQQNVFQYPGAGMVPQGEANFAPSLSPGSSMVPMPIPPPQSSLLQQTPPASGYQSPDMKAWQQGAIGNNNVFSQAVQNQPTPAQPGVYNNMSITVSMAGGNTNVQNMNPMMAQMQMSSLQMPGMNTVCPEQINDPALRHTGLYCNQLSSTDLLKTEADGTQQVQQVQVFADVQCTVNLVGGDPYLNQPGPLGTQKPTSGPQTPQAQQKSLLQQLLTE
Sequence of DNA dC->dU-editing enzyme APOBEC-3A (P31941 whole entry): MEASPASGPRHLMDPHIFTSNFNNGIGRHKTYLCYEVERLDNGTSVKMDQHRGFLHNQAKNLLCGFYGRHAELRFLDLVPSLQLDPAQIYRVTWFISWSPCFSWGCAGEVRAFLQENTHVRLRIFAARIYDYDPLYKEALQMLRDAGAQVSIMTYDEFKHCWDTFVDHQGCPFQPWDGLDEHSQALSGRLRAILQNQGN
Sequence of Paired box protein Pax-8 (Q06710 whole entry): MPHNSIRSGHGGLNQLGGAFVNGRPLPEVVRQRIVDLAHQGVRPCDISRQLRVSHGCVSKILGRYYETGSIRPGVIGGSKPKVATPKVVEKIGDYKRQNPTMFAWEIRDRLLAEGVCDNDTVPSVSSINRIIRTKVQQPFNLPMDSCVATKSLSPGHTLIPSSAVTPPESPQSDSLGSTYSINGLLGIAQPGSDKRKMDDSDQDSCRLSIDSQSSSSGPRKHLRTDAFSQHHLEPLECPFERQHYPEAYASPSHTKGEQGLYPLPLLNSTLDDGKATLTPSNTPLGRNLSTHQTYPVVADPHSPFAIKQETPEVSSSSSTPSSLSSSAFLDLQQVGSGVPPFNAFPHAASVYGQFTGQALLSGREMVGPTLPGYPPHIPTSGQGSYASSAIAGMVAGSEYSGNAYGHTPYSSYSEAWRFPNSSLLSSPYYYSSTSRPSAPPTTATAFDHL
Sequence of DNA dC->dU-editing enzyme APOBEC-3G (Q9HC16 whole entry): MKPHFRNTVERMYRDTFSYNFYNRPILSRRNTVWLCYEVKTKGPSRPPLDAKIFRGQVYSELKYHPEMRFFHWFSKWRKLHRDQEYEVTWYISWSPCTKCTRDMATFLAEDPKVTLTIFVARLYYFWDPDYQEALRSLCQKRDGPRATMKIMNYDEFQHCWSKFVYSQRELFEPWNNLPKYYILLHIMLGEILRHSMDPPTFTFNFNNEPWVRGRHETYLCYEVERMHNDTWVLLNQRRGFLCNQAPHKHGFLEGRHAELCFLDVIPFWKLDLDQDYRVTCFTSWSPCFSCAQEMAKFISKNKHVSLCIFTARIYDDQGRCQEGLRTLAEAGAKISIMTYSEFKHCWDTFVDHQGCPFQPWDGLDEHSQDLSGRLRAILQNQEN

Consider `O=C(Nc1nc(-c2ccc(S(=O)(=O)N3CCCCCC3)cc2)cs1)c1ccccc1`, for which the EC50 in [1] was 13.3 µM (inactive); in assay [2], 40.9 µM (not active); in assay [3], 15.8 µM (not active).
As to `COc1ccccc1Nc1ncc(C(=O)Nc2ccc(OC)c(OC)c2)c2ccccc12`, the figures for the IC50 in assay [4] and in [5] were 16.5 µM (not active) and > 111 µM (not active), respectively.
Regarding `CCCC(=O)Nc1ccc2nc(SCC(=O)Nc3ccc(N4CCOCC4)c(Cl)c3)sc2c1`, the IC50 in [4] was > 148 µM (not active); in assay [5] it was > 111 µM (not active); in assay [6], 4.33 µM (active); in assay [7] it was 4.72 µM (active). Also, the AC50 on Cytochrome P450 2D6 is 10 µM (inconclusive).
With `Cc1ccc(NC(=O)CN(C)C(=O)COc2cccc3cccnc23)cc1`, the IC50 in assay [8] is 44.5 µM (active).
With `O[C@@H]1[C@@H](O)C=C2CCN3Cc4cc5c(cc4[C@H]1C23)OCO5` (some centres undefined), the IC50 in assay [9] is > 80 µM (inactive); in the assay with Vero [10], > 25 µM (active). In addition, in the assay with Vero [11], the CC50 is 5.86 µM (active). For the same compound, the concentration at half-maximal activity (AC50) on Paired box protein Pax-8 is 1.88 µM (active).
Take `COc1ccc(CN2CCN(C(c3ccc(F)cc3)c3ccc(F)cc3)CC2)c(OC)c1OC`: the CC50 in [12] is > 40 µM (active). For the same compound, the concentration at half-maximal activity (AC50) on CAAX prenyl protease 2 is 4.67 µM (active).
Take `CNC(=S)NNC(=O)c1sccc1OCc1cccc(C(F)(F)F)c1`: the IC50 in assay [4] was 9.69 µM (active); in assay [5], > 111 µM (not active).
As for `CCOC(=O)c1oc2ccccc2c1NC(=O)c1ccc(S(=O)(=O)N(C)C)cc1`, the results for the IC50 in assay [4] and in assay [5] were 16.6 µM (not active) and > 111 µM (not active), respectively.
`CCCCOC(=O)C(C)Nc1n[nH]c(=S)[nH]c1=O` (centres undefined): the EC50 in assay [1] was 17.3 µM (inactive); in assay [2], > 79.4 µM (not active); in assay [3], 16.3 µM (not active).
For `CCN(Cc1ccncc1)Cc1c(O)ccc2cc(Br)ccc12`, the half-inhibitory concentration (IC50) in assay [8] is given as > 50 µM (not active).
For `CN(C)CCCNC(=O)/C=C/c1ccc(OCc2c(F)cccc2Cl)cc1`, the EC50 is 0.327 µM (active) in assay [13] and 8.47 µM (active) in assay [14]. Moreover, the IC50 in the assay with Vero [10] is 23.5 µM (active). Also, the CC50 in the assay with Vero [11] is > 25 µM (active).
Take `Cc1ccc(-c2nc3ccccc3[nH]2)cc1NC(=O)c1sc2cc(Cl)ccc2c1Cl`: the 50% inhibitory concentration (IC50) in assay [4] is 13 µM (not active); in assay [5] it was > 111 µM (not active). For the same compound, the half-maximal effective concentration (EC50) in assay [13] was 0.642 µM (active); in assay [14] it was > 60 µM (inconclusive).
In the case of `COc1ccc2nc(SC)c(C#N)cc2c1`, the EC50 in assay [1] was 14.1 µM (inactive); in [2], 41.8 µM (not active); in assay [3], 12.3 µM (not active); in [15] it was > 260 µM (inactive).
On to `COc1cc(CN2CCN(c3ccccc3F)CC2)c([N+](=O)[O-])cc1OC`, for which, in [8], the IC50 was > 50 µM (not active).
Consider `CCn1c(SCC(N)=O)nnc1C(C)C`, for which the IC50 against Prothrombin is > 50 µM (not active).
Regarding `Cc1ccc(OCC(=O)N2CCC(N3CCCCCC3)CC2)cc1`, the IC50 at Prothrombin was > 50 µM (not active).
With `O=C(CSc1nnc(-c2ccccc2)c(-c2ccccc2)n1)Nc1ccc(Br)cn1`, the IC50 on Prothrombin was > 50 µM (inconclusive).
Regarding `Cc1onc(-c2ccccc2Cl)c1C(=O)Nc1nnc(-c2ccc(Br)cc2)s1`, the EC50 in [1] is > 79.4 µM (inactive); in assay [2], > 79.4 µM (not active); in assay [3], 45 µM (not active).
With `O=C(Nc1ccc(N2CCOCC2)cc1)C1CCN(S(=O)(=O)c2ccccc2F)CC1`, the IC50 against Prothrombin is recorded as > 50 µM (not active).
With `Cc1ccc(N2CC(C(=O)N/N=C/c3cccc([N+](=O)[O-])c3)CC2=O)cc1` (centres undefined), the IC50 against Prothrombin is on record as > 50 µM (not active).
Regarding `CC(=O)/N=c1\sc2nc3ccccc3nc2n1N(C(C)=O)C(C)=O`, the EC50 in assay [1] was 25.2 µM (inactive); in [2], > 79.4 µM (not active); in assay [3], 22.9 µM (not active).
